Test in all cases: growth of human tumour cells (NCI), 48 h
The test system of test [1] is EKVX NSCLC.
Test [2] deals with UO-31 renal.
The test system of test [3] is CAKI-1 renal.
Test [4] relates to HS 578T breast.
The test system of test [5] is NCI-H226 lung.
Test [6] has as its system LOX IMVI melanoma.
Test [7] deals with RPMI-8226 leukemia.
The test system of test [8] is SR leukemia.

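Where inhibition never reached the appropriate level, the endpoint shown equals the highest concentration tested. Otherwise, values were interpolated linearly from a five-concentration, 48-hour dose response in 96-well plates. At the GI50, growth is halved. TGI: concentration producing complete growth inhibition.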

On to `CC(C)C1OC23CCCCC2C(C#N)(C#N)C1(C#N)C(=N)O3` (stereo unspecified), for which the TGI in test [1] is 77.7 µM; in test [2] it was above 100 µM; in test [3], 22.4 µM; in test [4], 42.3 µM; in test [5], above 100 µM; in test [6], 54 µM.

In the case of `Cc1cccc(-c2nc3ccc([N+](=O)[O-])cc3c(=O)o2)c1`, the TGI in test [2] is above 100 µM; in test [7], above 100 µM; in test [3], above 100 µM; in test [4] it was 97.9 µM; in test [5], above 100 µM; in test [6], above 100 µM. For the same compound, the TGI in test [8] was above 100 µM.

`COc1ccc(C(=O)Sc2c(-c3ccccc3)c(=O)n(-c3ccccc3)c(=S)n2-c2ccccc2)cc1`: the TGI is above 100 µM in test [1]; above 100 µM in test [3]; above 100 µM in test [4]; 58.7 µM in test [5]; above 100 µM in test [6]; above 100 µM in test [8].

For `CCOC(=O)C1=CC(C)(C(=O)OCC)Nc2c(nc(OC)n(C)c2=O)N1` (stereo unspecified), the TGI in test [1], in test [2], in test [7], in test [3], in test [4] and in test [5] was above 10 µM each time. Also, in test [6], the TGI was above 10 µM.

Consider `O=C1OC[C@@H]2Cc3cc4c(cc3[C@H](c3ccc5c(c3)OCO5)[C@@H]12)OCO4`, for which the TGI in test [1], in test [2], in test [7], in test [3], in test [6] and in test [8] was above 25 µM in each case.

Regarding `Cc1nc(N)sc1-c1ccnc(Nc2ccc(N3CCOCC3)cc2)n1`, the GI50 in test [1] is 4.02 µM; in test [2], 1.28 µM; in test [7], 1.66 µM; in test [3] it was 0.517 µM; in test [4], 0.603 µM; in test [6] it was 0.907 µM. Besides, the GI50 in test [8] was 0.346 µM. Further, the TGI in test [1] was above 100 µM; in test [2] it was above 51.1 µM; in test [7], above 38.3 µM; in test [3], 3.05 µM; in test [4], above 100 µM; in test [6], above 100 µM. In test [8], the TGI is 5.39 µM.

As to `O=C(CC(=O)Nc1cccc(C(=O)O)c1)Nc1cccc(C(=O)O)c1`, the TGI in test [1], in test [2], in test [7], in test [3], in test [4] and in test [5] was above 100 µM each time. Further, the TGI in test [6] was above 100 µM.

With `Cc1ccc2c(n1)C(=O)c1[nH]c3ccccc3c1C2=O`, the GI50 in test [1] is 1.22 µM; in test [2], 1.63 µM; in test [7] it was 2.25 µM; in test [3] it was 2.37 µM; in test [4], 2.54 µM; in test [5] it was 1.36 µM. Besides, the GI50 in test [6] was 1.01 µM. For the same compound, the TGI was 4.17 µM in test [1]; 10.7 µM in test [2]; 12.3 µM in test [7]; above 100 µM in test [3]; 7.16 µM in test [4]; 3.65 µM in test [5]. The compound also registered a TGI in test [6] of 24.8 µM.

As for `O=[N+]([O-])c1ccc(C=C2C(Cl)=C(Cl)C(Cl)=C2Cl)cc1`, the GI50 was 3.67 µM in test [1]; 1.47 µM in test [2]; 1.84 µM in test [7]; 1.11 µM in test [3]; 4.31 µM in test [5]; 2 µM in test [6]. The GI50 in test [8] was 2.04 µM. Further, the TGI in test [1] was above 100 µM; in test [2], 3.16 µM; in test [7], 5.16 µM; in test [3] it was 3.4 µM; in test [5] it was 23 µM; in test [6] it was 4.3 µM. Further, the TGI in test [8] was 7.75 µM.

In the case of `COc1nc(C(=O)NNC(=O)c2nc(OC)c3ccccc3c2-c2ccccc2)c(-c2ccccc2)c2ccccc12`, the TGI in test [1], in test [2], in test [7], in test [3], in test [4] and in test [5] was above 100 µM in each case. In test [8], this compound had a TGI above 100 µM.

Take `Clc1c(Cl)c(Cl)c2nn(C3CCCO3)nc2c1Cl` (stereo unspecified): the TGI in test [1] is above 100 µM; in test [3], above 100 µM; in test [4], 49.5 µM; in test [5] it was above 100 µM; in test [8], above 100 µM.

Take `CCOC(=O)C1=C(C)N(C)C23OC4(C(=O)OC)CC2c2ccccc2C1N3C4=O` (stereo unspecified): the TGI in test [1], in test [2], in test [7], in test [3], in test [5] and in test [6] was above 100 µM throughout. Besides, in test [8], the TGI is above 100 µM.

As to `N#C/C(C(=O)Nc1ccccc1)=C(/N)N1CCOCC1`, the TGI in test [1], in test [2], in test [7], in test [3], in test [5] and in test [6] was above 100 µM in each case. This compound came in with a TGI in test [8] above 100 µM.

As for `COC(=O)Cc1cc(O)c(C/C=C(\C)CC/C=C(\C)C(O)C(=O)C=C(C)C)cc1O` (stereo unspecified), the TGI in test [1] is 66.8 µM; in test [2], 46 µM; in test [7], 69.6 µM; in test [4] it was above 100 µM; in test [5], 51.8 µM; in test [8], 41.6 µM.

In the case of `Cc1cc(N(CCC#N)CCC#N)ccc1/C(N=Nc1ccc([N+](=O)[O-])cc1)=N\NC(=O)c1cc(Cl)ccc1C(=O)c1ccccc1`, the TGI in test [1] was 28.3 µM; in test [2], 60.5 µM; in test [7], 38.4 µM; in test [3] it was 62.5 µM; in test [4], 68 µM; in test [5], 34.1 µM.

Take `CC1=C(C#N)C(C#N)(C#N)C(NN(C)C)C1` (stereo unspecified): the TGI was 86.3 µM in test [1]; 29.3 µM in test [2]; 35.9 µM in test [7]; 7 µM in test [3]; above 100 µM in test [4]; 29.7 µM in test [6]. For the same compound, in test [8], the TGI was above 100 µM.

On to `CCn1c(-c2cc(OC)cc(OC)c2)nc2c1C(=O)c1ccccc1C2=O`, for which the TGI in test [1], in test [7], in test [4], in test [5] and in test [8] was above 100 µM each time.

The record behind these values is PubChem BioAssay (NCI).
